Data reported in patent US10787640B2, “Producing mesodermal cell types and methods of using the same” (The Board of Trustees of the Leland Stanford Junior …, priority 2015, dated 2020).

What was measured:
[1] = system: day 3 early somite progenitors; assay: Patterning of early somite progenitors into sclerotome or dermomyotome; assay type: cell-based, human
Description: Day 2 paraxial mesoderm was briefly washed (DMEM/F12) and further differentiated into day 3 early somite/somitomere precursors for 24 hours (1 μM A-83-01+250 nM LDN-193189+1 μM C59+500 nM PD0325901). Subsequently, day 3 early somites were dorsoventrally patterned into either ventral somites/sclerotome (5 nM 21K+1 μM C59) or dorsal somites/dermomyotome (3 μM CHIR99021+150 nM Vismodegib). Sclerotome induction was conducted for 48-72 hours (leading to day 5-6 ventral somite progenitors). […] Media was changed 24 hours for all steps. The Hedgehog agonist 21K, which has been previously described in, e.g., Brunton et al., 2009 the disclosure of which is incorporated herein by reference in its entirety, was commercially synthesized.
Day 3 early somites were briefly washed (DMEM/F12), treated with BMP4+CHIR99021+Vismodegib for 24 hours, washed again (DMEM/F12) and subsequently treated with CHIR99021 (3 μM)+21K (5 nM) for 24 hours. This day 5 dermomyotome was further empirically differentiated towards skeletal muscle-like progeny (using medium containing 2% horse serum, which has been previously described in, e.g., Xu et al. 2013, the disclosure of which is incorporated herein by reference in its entirety) for 12 days, yielding day 17 skeletal muscle-containing populations.
FIG. 11: A) To determine the length of time required for sclerotome differentiation, a qPCR timecourse was performed, encompassing undifferentiated hESCs (D0), day 2 hESC-derived paraxial mesoderm (D2 PXM), day 3 hESC-derived early somite progenitors, and hESC-derived day 3 early somite progenitors that were exposed to sclerotome inductive conditions (5 nM 21K+1 μM C59) for 24 or 48 hours. B) Description of EF1α-BCL2-T2A-GFP lentiviral construct (otherwise known as “C306”; top) and FACS plot of a stably-transduced polyclonal H9 hESC line with near-uniform expression of the BCL2-T2A-GFP transgene (green contour) by comparison to uncolored wild-type hESCs (bottom) (see above methods for details of derivation of the H9 BCL2-T2A-GFP hESC line). C) Higher-magnification picture of BCL2-T2A-GFP hESC-derived sclerotome ectopic bone grafts (originally described above in FIG. 4, panel E), showing that despite the near-ubiquitous expression of GFP throughout the ectopic bone graft (indicating its human provenance), the blood vessels are clearly GFP-negative and therefore presumably derived from the mouse host; scale bar=1 mm. […] L) Description of EF1a-BCL2-T2A-GFP lentiviral construct (otherwise known as “C306”; top) and FACS plot of a stably-transduced polyclonal H9 hESC line with near-uniform expression of the BCL2-T2A-GFP transgene (green contour) by comparison to uncolored wild-type hESCs (bottom) (see the methods described herein for details of derivation of the H9 BCL2-T2A-GFP hESC line). M) Description of UBC-Luciferase-T2A-tdTomato lentiviral construct (top); bioluminescent assay of cultured H9 UBC-Luciferase-T2A-tdTomato hESCs validates that these cells are luciferase-expressing in vitro (bottom).

[2] = system: hESC-derived primitive streak; assay: Paraxial versus lateral/cardiac mesoderm specification from primitive streak; assay type: cell-based, human
Description: Subsequently, day 1 anterior primitive streak was briefly washed (DMEM/F12) and differentiated towards day 2 paraxial mesoderm for 24 hours (1 μM A-83-01+3 μM CHIR99021+250 nM LDN-193189+20 ng/mL FGF2). Separately, day 1 mid primitive streak was differentiated towards day 2 lateral mesoderm for 24 hours (1 μM A-83-01+30 ng/mL BMP4+1 μM C59; with 2 μM SB-505124 sometimes used instead of A-83-01).
B) To assess whether FGF/ERK signaling was permissive for both paraxial and lateral/cardiac mesoderm specification, hESCs were differentiated into primitive streak for 24 hours, and then transferred into (i) A-83-01+DM3189 (“AD”; permissive for paraxial mesoderm) or (iii) A-83-01+BMP4+C59 (“AB+C59”; permissive for lateral/cardiac mesoderm) for 24 hours in the presence or absence of a FGF agonist (FGF2, 10-20 ng/mL), an FGFR inhibitor (PD173074, 100 nM) or a MAPK/ERK inhibitor (PD0325901, 500 nM) for 24 hours and qPCR for all experiments was conducted on day 2 (that is, after 48 total hours of hESC differentiation). To assess whether TGFβ signaling altered paraxial, intermediate and lateral/cardiac mesoderm specification, hESCs were differentiated into primitive streak for 24 hours, and then transferred into (ii) DM3189+FGF2 (“DF”; permissive for paraxial mesoderm) or (iv) BMP4+C59 (“B+C59”; permissive for lateral/cardiac mesoderm) for 24 hours in the presence of a TGFβ agonist (Activin, 10-25 ng/mL) or a TGFβR inhibitor (A-83-01, 1 μM) for 24 hours or (v) BMP4 (3 ng/mL)+FGF2 (20 ng/mL) (“B3F20”) for 24 hours in the presence of a TGFβ agonist (Activin, 3-25 ng/mL) or a TGFβR inhibitor (A-83-01, 1 μM) and qPCR for all experiments was conducted on day 2 (that is, after 48 total hours of hESC differentiation). […] Therefore, hESCs were differentiated towards primitive streak for 24 hours, and then subsequently transferred into (i) A-83-01+CHIR99021+FGF2 (ACF) in the presence or absence of one of two BMPR inhibitors (DMH1, 1 μM or LDN193189, 250 nM) for 24 hours and qPCR was conducted on day 2. Alternately, hESC-derived PS was transferred into (ii) CHIR99021+DM3189+FGF2 (CDF) for 24 hours in the presence or absence of a TGFβ agonist (25 ng/mL Activin) or one of two TGFβR inhibitors (SB-505124, 2 μM or A-83-01, 1 μM) for 24 hours and qPCR was conducted on day 2. […] E) To test the role of FGF in lateral mesoderm induction (on day 2 of hESC differentiation), NKX2.5-GFP hESCs were differentiated into mid primitive streak for 24 hours, and then were treated with BMP4+C59+SB505124 in the presence of an FGF agonist (FGF2, 20-50 ng/mL) or a FGFR inhibitor (PD173074, 100 nM) or a MAPK/ERK inhibitor (PD0325901, 500 nM) for 24 hours, and then all cultures were treated with BMP4+C59+SB505124+FGF2 for 24 hours more before being harvested on day 3 for FACS.

In the case of `Cc1cnc(-c2cnc(NCCNc3ccc(C#N)cn3)nc2-c2ccc(Cl)cc2Cl)[nH]1` [CHIR99021, 6-[[2-[[4-(2,4-Dichlorophenyl)-5-(5-methyl-1H-imidazol-2-yl)-2-pyrimidinyl]amino]ethyl]amino]-3-pyridinecarbonitrile], the “dorsal somite marker PAX3 and sclerotome fate” value ([1]; CHIR together with Vismodegib) is reported as “sustained dorsal somite marker PAX3 while inhibiting the sclerotome fate”.

With `Cc1cccc(-c2[nH]c(C(C)(C)C)nc2-c2ccc3c(c2)OCO3)n1` [SB-505124, 2-[4-(1,3-Benzodioxol-5-yl)-2-(1,1-dimethylethyl)-1H-imidazol-5-yl]-6-methyl-pyridine] the “paraxial mesoderm induction (qPCR day 2)” value ([2]; ACF with DMH1 1 μM or LDN193189 250 nM, CDF with SB-505124 2 μM or A-83-01 1 μM, 24 hours) was “serve to induce paraxial mesoderm” and the “NKX2.5-GFP+ cardiac mesoderm induction (FACS day 3)” value ([2]; BMP4 (50 ng/mL)+C59, 48 hours, SB-505124 2 μM or A-83-01 1 μM, P<0.01) was “increased NKX2.5-GFP^+ cardiac mesoderm induction”.

B1: BMP4: BMP family ligand, BMP agonist (protein, UniProt P12644 293-408, looked up)
Bone morphogenetic protein 4: SPKHHSQRARKKNKNCRRHSLYVDFSDVGWNDWIVAPPGYQAFYCHGDCPFPLADHLNSTNHAIVQTLVNSVNSSIPKACCVPTELSAISMLYLDEYDKVVLKNYQEMVVEGCGCR
B1 was tested, and the “lateral mesoderm specification (qPCR)” value ([2]; A8301+C59, 24 hours, BMP4 10-30 ng/mL) was “required to drive lateral mesoderm specification”, the PAX7 expression ([1]; 3 μM CHIR99021+150 nM Vismodegib, 48 hours, BMP4 10 ng/mL) was “greatly enhances the expression of PAX7” and the “PAX7 induction in central dermomyotome” value ([1]; CHIR99021+Vismodegib+BMP4, 24 hours) was “important to induce PAX7 in central dermomyotome”.
